Measurements reported in US7879893B2, “Ligands for the HisB10 Zn2 + sites of the R-state insulin hexamer” (Novo Nordisk A/S, priority 2001, dated 2011).
Residues, ends and D or L forms follow the SMILES beside them. *: point of attachment. X1 = O=C1NC(=O)/C(=C/c2cccc(OCC(=O)*)c2)S1; 4Abz = Nc1ccc(C(=O)O)cc1

Assay: not given
Conditions: inherent limitation, background statement; cited from earlier work

Row | Molecule | absorption half-life
1 | soluble human insulin hexamer: "inherent limitation of the absorption half-life to about 4 hours for a soluble human insulin hexamer" | about 4 hours

Same assay, conditions: soluble preparations, background statement; cited from earlier work

Row | Molecule | absorption rate (time) after subcutaneous injection
2 | Co^3+-hexamer: "absorption rates vary between about 1 hour (for rapid-acting insulin analogues ...) and about 4 hours (Co^3+-hexamer)" | about 4 hours

Assay: not given
Conditions: not given

Row | Molecule | melting point [°C]
3 | COc1cc(/C=C2\SC(=O)NC2=O)cc(I)c1O | 256
4 | O=C1NC(=O)/C(=C/c2ccc3cc(O)ccc3c2)S1 | 310 to 314
5 | O=C1NC(=O)C(=Cc2c[nH]c3ccc([N+](=O)[O-])cc23)S1 | 330 to 333
6 | O=C1NC(=O)/C(=C/c2c(Cl)cccc2Cl)S1 | 152 to 154
7 | COc1cc(O)cc(OC)c1/C=C1\SC(=O)NC1=O | 331 to 333
8 | Cc1cccc(C)c1/C=C1\SC(=O)NC1=O | 104 to 105
9 | COc1cccc(OC)c1/C=C1\SC(=O)NC1=O | 241 to 242
10 | O=C1NC(=O)/C(=C/c2cc3ccccc3o2)S1 | 265 to 266
11 | CN(C)c1ccc(/C=C/C=C2\SC(=O)NC2=O)cc1 | 259 to 263
12 | CC(/C=C1\SC(=O)NC1=O)=C\c1ccccc1 | 203 to 210
13 | O=C1NC(=O)/C(=C/C(Cl)=C/c2ccccc2)S1 | 251 to 254
14 | O=C1NC(=O)/C(=C/c2cc3ccccc3[nH]c2=O)S1 | 338 to 347
15 | c1cc(COc2ccc3ccccc3c2)cc(-c2nnn[nH]2)c1 | 200 to 202

Assay: Disappearance rate from the subcutaneous depot following subcutaneous injection in pigs (T50% of A14 Tyr(125I) insulin)
Assay type: in vivo, pig
Conditions: Asp^B28 human insulin, ligand added in concentrations lower than that of Zn2+, s.c.
Text: The slow release (prolonged action) properties of certain formulations of the present invention was characterized by the disappearance rate from the subcutaneous depot following subcutaneous injections in pigs. T50% is the time when 50% of the A14 Tyr(^125I) insulin has disappeared from the site of injection as measured with an external γ-counter (Ribel et al., The Pig as a Model for Subcutaneous Absorption in Man. In: M. Serrano-Rtios and P. J. Lefebre (Eds): Diabetes (1985) Proceedings of the 12th congress of the International Diabetes Federation, Madrid, Spain, 1985 (Excerpta Medica, Amsterdam (1986), 891-896). The composition of a series of protracted formulations is given in the table below together with the T50% values. The disappearance curves are illustrated in FIG. 3a-d. For comparison, the T50% for the corresponding insulin preparations formulated without the ligands would be about 2 hours.
The induction of slow release by addition of exogenous ligands of the invention affords further advantages in terms of versatility regarding the choice of insulin species and release patterns. Consequently, human or mutant insulins such as Asp^B28, Lys^B28Pro^B29, or Gly^A21Lys^B3Glu^B29 may be formulated as slow- or dual-release preparations by adding variable amounts of His^B10Zn^2+-site ligand. […]

Row | Molecule | release pattern of the formulation
16 | N=C(N)NCCC[C@H](NC(=O)[C@H](CCCNC(=N)N)NC(=O)[C@H](CCCNC(=N)N)NC(=O)[C@H](CCCNC(=N)N)NC(=O)[C@H](CCCNC(=N)N)NC(=O)CNC(=O)CNC(=O)c1ccc(NC(=O)COc2cccc(/C=C3\SC(=O)NC3=O)c2)cc1)C(N)=O [TZD-Abz-G2R5, 4-{2-[3-(2,4-Dioxothiazolidin-5-ylidenemethyl)phenoxy]acetylamino}benzoyl-Gly2-Arg5-NH2] ({X1-4Abz}-GGRRRRR-NH2) | distinctly dual-release formulation

Same assay, conditions: Asp^B28 human insulin, ligand added in slight excess of the Zn2+ concentration, s.c.

Row | Molecule | T50%
17 | N=C(N)NCCC[C@H](NC(=O)[C@H](CCCNC(=N)N)NC(=O)[C@H](CCCNC(=N)N)NC(=O)[C@H](CCCNC(=N)N)NC(=O)[C@H](CCCNC(=N)N)NC(=O)CNC(=O)CNC(=O)c1ccc(NC(=O)COc2cccc(/C=C3\SC(=O)NC3=O)c2)cc1)C(N)=O [TZD-Abz-G2R5, 4-{2-[3-(2,4-Dioxothiazolidin-5-ylidenemethyl)phenoxy]acetylamino}benzoyl-Gly2-Arg5-NH2] ({X1-4Abz}-GGRRRRR-NH2) | about 14.8
